Measured values as given in PubChem BioAssay (NCI).
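Grown in 96-well plates, cells were treated for 48 hours with each compound at five concentrations. Insufficient inhibition: endpoint recorded as highest concentration tested. TGI is the concentration that stops growth completely.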

How the values were obtained:
Test in all cases: NCI-60 cell line screen, 48 h
[1] = system: 786-0 renal
[2] = system: A549 NSCLC
[3] = system: BT-549 breast
[4] = system: CAKI-1 renal
[5] = system: CCRF-CEM leukemia
[6] = system: HL-60(TB) leukemia
[7] = system: KM12 colon
[8] = system: LOX IMVI melanoma
[9] = system: M14 melanoma
[10] = system: MDA-MB-435
[11] = system: NCI-H23 lung
[12] = system: OVCAR-4 ovarian
[13] = system: OVCAR-5 ovarian
[14] = system: OVCAR-8 ovarian
[15] = system: PC-3 prostate
[16] = system: RXF 393 renal
[17] = system: SK-MEL-28 melanoma
[18] = system: SR leukemia
[19] = system: UACC-62 melanoma
[20] = system: SNB-19 CNS

| SMILES | TGI [1] [µM] | TGI [2] [µM] | TGI [3] [µM] | TGI [4] [µM] | TGI [5] [µM] | TGI [6] [µM] | TGI [7] [µM] | TGI [8] [µM] | TGI [9] [µM] | TGI [10] [µM] | TGI [11] [µM] | TGI [12] [µM] | TGI [13] [µM] | TGI [14] [µM] | TGI [15] [µM] | TGI [16] [µM] | TGI [17] [µM] | TGI [18] [µM] | TGI [19] [µM] | TGI [20] [µM] |
| --- | --- | --- | --- | --- | --- | --- | --- | --- | --- | --- | --- | --- | --- | --- | --- | --- | --- | --- | --- | --- |
| O=[N+]([O-])c1nccn1CCCN=c1c2ccccc2n(O)c2ccccc12 | > 100 | > 100 | > 100 | > 100 | > 100 | > 100 | > 100 | > 100 | > 100 | > 100 | > 100 | > 100 | > 100 | > 100 | > 100 | > 100 | > 100 | > 100 | > 100 | – |
| CCC(C)[C@H]1C(=O)N=C(N)N1C(=O)OCc1ccccc1 (stereo partly drawn) | > 100 | – | > 100 | > 100 | – | > 100 | > 100 | > 100 | – | > 100 | > 100 | > 100 | > 100 | > 100 | > 100 | > 100 | > 100 | > 100 | > 100 | > 100 |
| Nc1nc(N)nc(-c2cnc3ccccc3c2)n1 | > 100 | > 100 | > 100 | > 100 | 65.9 | – | > 100 | > 100 | > 100 | > 100 | > 100 | – | > 100 | > 100 | > 100 | > 100 | > 100 | > 100 | > 100 | > 100 |
| C[C@@]12C[C@@H](c3ccccc3O1)N1CCSC1=N2 | > 100 | – | > 100 | > 100 | – | > 100 | > 100 | > 100 | > 100 | > 100 | > 100 | > 100 | > 100 | > 100 | > 100 | > 100 | > 100 | > 100 | > 100 | > 100 |
| Cc1cc2c(cc1Cl)SC(NN(C)C)=NS2(=O)=O | > 10 | > 10 | > 10 | > 10 | > 10 | > 10 | > 10 | > 10 | > 10 | > 10 | > 10 | > 10 | > 10 | > 10 | > 10 | > 10 | > 10 | – | > 10 | > 10 |
| Nc1cc(OCc2ccccc2)c(OCc2ccccc2)cc1C=O | 55.4 | > 100 | 37.3 | – | > 100 | 40 | 92.2 | 77.2 | – | > 100 | – | – | > 100 | > 100 | > 100 | – | > 100 | > 100 | – | > 100 |
| C[C@]1(O)CC(=O)c2c(c(-c3ccc4cc5c(c(O)c4c3O)C(=O)C[C@@](C)(O)C5)c3cccc(O)c3c2O)C1 | 17.1 | 23.8 | 18.6 | 18.2 | > 100 | – | 11.7 | 26.6 | 29.8 | 41 | 12.9 | 21.1 | 25.3 | 18.5 | 13.2 | 17.8 | 23.2 | > 100 | 27 | 23.2 |
| NNC(=O)CC(=O)Nc1ccc(C(=O)O)cc1 | > 100 | > 100 | > 100 | > 100 | > 100 | > 100 | > 100 | > 100 | – | > 100 | > 100 | > 100 | > 100 | > 100 | > 100 | > 100 | – | > 100 | > 100 | > 100 |
| CCN(CC)CCC(=O)c1ccc(Oc2ccc(C)cc2)cc1 | 30.1 | > 100 | 32.7 | 31.1 | 89.7 | – | 23.9 | 31 | 31.9 | 32 | 34.8 | 55.3 | 41 | 39.4 | 38.2 | 30.2 | 30.5 | > 100 | 31.3 | 33.3 |
| NS(=O)(=O)c1cc(S(N)(=O)=O)c(NC(=O)Nc2ccc(Cl)c(Cl)c2)c(Cl)c1Cl | > 100 | > 100 | > 100 | > 100 | – | – | > 100 | > 100 | > 100 | > 100 | > 100 | > 100 | > 100 | > 100 | > 100 | – | > 100 | > 100 | > 100 | > 100 |
| CC(C)=C1C(=O)C[C@]2(C)C/C=C(\C)CC/C=C(\C)CC[C@@H]12 | 16.7 | > 50 | 24.8 | 15.1 | 19.5 | – | 16.1 | – | 15.8 | 20 | 23.9 | 45.6 | 32.1 | 16 | > 50 | 15.2 | 15.2 | 28.3 | 15.3 | > 50 |
| CSc1c(C#N)c(O)n(-c2ccc(Cl)cc2)c(=O)c1C#N | > 100 | > 100 | > 100 | > 100 | – | > 100 | > 100 | > 100 | > 100 | > 100 | > 100 | > 100 | > 100 | > 100 | > 100 | > 100 | > 100 | > 100 | > 100 | > 100 |
| Nn1c(-c2ccccc2Nc2ccccc2-c2n[nH]c(=S)n2N)n[nH]c1=S | > 50 | – | > 50 | – | > 50 | > 50 | > 50 | > 50 | > 50 | > 50 | > 50 | > 50 | > 50 | > 50 | > 50 | > 50 | > 50 | > 50 | > 50 | > 50 |
